In brackets after ≈: the same amount, converted by molar mass. Where two headings read alike, the source gives them in different places.
Tests used:
[1] = target: T1, rat NK1 (rNK1) receptor (Rattus norvegicus, UniProt P14600); test: Radioligand competition binding, [3H]substance P, rNK1/CHO membranes; details: for IC50: LogIC50, rNK1, [3H]Substance P, Table 6, logarithm of IC50 (negative), CHO cell membranes
T1 construct: expressed in transfected cells; host or cells: CHO (rNK-1/CHO cell line from Dr. James Krause)
T1 sequence (P14600 whole entry): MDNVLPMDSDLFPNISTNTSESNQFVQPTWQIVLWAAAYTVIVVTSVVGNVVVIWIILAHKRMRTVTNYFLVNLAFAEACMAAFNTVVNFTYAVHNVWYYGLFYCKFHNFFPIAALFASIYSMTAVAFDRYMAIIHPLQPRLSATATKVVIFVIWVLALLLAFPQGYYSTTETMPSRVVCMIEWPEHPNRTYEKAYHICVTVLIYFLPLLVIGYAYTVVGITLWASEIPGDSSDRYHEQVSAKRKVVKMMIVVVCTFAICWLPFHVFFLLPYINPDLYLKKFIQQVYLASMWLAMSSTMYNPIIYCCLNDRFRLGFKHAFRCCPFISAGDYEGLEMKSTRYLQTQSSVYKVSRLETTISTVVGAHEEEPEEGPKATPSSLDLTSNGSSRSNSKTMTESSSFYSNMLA

[2] = target: T2, Substance P receptors (guinea pig NK1) (Cavia porcellus, UniProt P30547); test: Guinea pig isolated ileum (GPI) assay with substance P stimulation in presence of 1 μM naloxone
T2 construct: from tissue; host or cells: guinea pig (Hartley) ileum LMMP, 1 μM naloxone present
T2 sequence (P30547 whole entry): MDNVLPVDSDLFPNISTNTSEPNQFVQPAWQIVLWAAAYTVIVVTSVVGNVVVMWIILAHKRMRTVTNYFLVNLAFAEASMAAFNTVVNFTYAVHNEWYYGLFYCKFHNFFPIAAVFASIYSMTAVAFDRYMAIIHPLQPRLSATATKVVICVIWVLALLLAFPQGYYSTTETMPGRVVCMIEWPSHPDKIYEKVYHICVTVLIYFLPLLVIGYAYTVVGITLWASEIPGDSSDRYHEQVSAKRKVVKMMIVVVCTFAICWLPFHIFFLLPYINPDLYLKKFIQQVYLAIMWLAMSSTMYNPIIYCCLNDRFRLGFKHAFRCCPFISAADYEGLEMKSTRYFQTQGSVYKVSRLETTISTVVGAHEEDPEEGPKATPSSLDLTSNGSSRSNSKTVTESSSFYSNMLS
Procedure: Testing stopped at 1 mM concentrations of the test compound.
Analysis of GPI and MVD assays. For opioid data analysis, percentage inhibition was calculated using the average tissue contraction height for 1 min preceding the addition of the agonist divided by the contraction height 3 min after exposure to the dose of agonist. […] IC50 and Emax estimates were determined by computerized nonlinear least-squares analysis (the pharmacological statistics package FlashCalc: Dr. Michael Ossipov, University of Arizona, Tucson, Ariz.). […] A50 values represent the mean of not less than 4 tissues. A50 and Emax estimates were determined by computerized nonlinear least-squares analysis (FlashCalc).

[3] = target: T3, human NK1 receptor (hNK1) (Homo sapiens, UniProt P25103); test: Radioligand competition binding, [3H]-Substance P, hNK1
T3 construct: expressed in transfected cells
T3 sequence (P25103 whole entry): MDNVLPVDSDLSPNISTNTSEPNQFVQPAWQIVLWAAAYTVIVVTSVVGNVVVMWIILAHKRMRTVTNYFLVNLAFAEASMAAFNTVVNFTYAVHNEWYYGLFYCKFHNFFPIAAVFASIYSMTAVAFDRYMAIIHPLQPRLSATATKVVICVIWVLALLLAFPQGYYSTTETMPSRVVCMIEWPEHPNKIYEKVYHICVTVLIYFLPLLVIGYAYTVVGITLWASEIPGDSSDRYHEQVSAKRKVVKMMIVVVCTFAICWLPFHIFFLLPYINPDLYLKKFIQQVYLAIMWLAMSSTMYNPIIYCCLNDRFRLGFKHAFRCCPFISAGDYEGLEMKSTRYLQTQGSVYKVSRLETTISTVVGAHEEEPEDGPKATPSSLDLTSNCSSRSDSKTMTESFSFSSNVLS

[4] = Octanol/saline distribution (logD7.4); assay type: physicochemical
Procedure: HEPES buffer (0.05 M HEPES buffer in 0.1 M NaCl, pH 7.4, 500 μL) was added to 2 mg of compound and mixed with 500 μL of 1-octanol. The sample was shaken at r.t. for 12 h to allow equilibrating. The sample was centrifuged at 6500 rpm in a VanGuard V6500 (GlaxoSmithKline, Research Triangle Park, N.C.) for 15 min. The layers were separated and each layer was centrifuged once again. The compound concentrations of obtained layers were analyzed by HPLC (30-70% of acetonitrile containing 0.1% TFA within 20 min and up to 95% within additional 5 min, 1 mL/min, 230 nm, Vydac 218TP104 C-18 column). The logarithm of 1-octanol/saline distribution (logD7.4) was calculated as the ratio of compound concentration in the 1-octanol and saline phases.
Octanol/saline distribution (logD7.4) (Yamamoto, 2007, J. Med. Chem., submitted). HEPES buffer (0.05 M HEPES buffer in 0.1 M NaCl, pH 7.4, 500 μL) was added to 2 mg of compound and mixed with 500 μL of 1-octanol. The sample was shaken at r.t. for 12 h to allow equilibrating. The sample was centrifuged at 6500 rpm in a VanGuard V6500 (GlaxoSmithKline, Research Triangle Park, N.C.) for 15 min. The layers were separated and each layer was centrifuged once again. The compound concentrations in the obtained layers were analyzed by HPLC (30-70% of acetonitrile containing 0.1% TFA within 20 min and up to 95% within additional 5 min, 1 mL/min, 230 nm, Vydac 218TP104 C-18 column). The logarithm of 1-octanol/saline distribution (logD7.4) was calculated as the ratio of compound concentration in the 1-octanol and saline phases.

[5] = system: μ opioid receptors (GPI); test: Guinea pig isolated ileum (GPI) assay, opioid agonist;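 further: inhibition of electrically evoked contractions (0.1 Hz, 0.4 msec, supramaximal voltage) in organ baths at 37 °C, contraction height 3 min after each cumulative dose versus the 1 min before dosing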
[6] = target: T4, δ opioid receptors (MVD) (Mus musculus, UniProt P32300); test: Mouse isolated vas deferens (MVD) assay, opioid agonist
T4 construct: from tissue; host or cells: mouse (ICR) isolated vas deferens
T4 sequence (P32300 whole entry): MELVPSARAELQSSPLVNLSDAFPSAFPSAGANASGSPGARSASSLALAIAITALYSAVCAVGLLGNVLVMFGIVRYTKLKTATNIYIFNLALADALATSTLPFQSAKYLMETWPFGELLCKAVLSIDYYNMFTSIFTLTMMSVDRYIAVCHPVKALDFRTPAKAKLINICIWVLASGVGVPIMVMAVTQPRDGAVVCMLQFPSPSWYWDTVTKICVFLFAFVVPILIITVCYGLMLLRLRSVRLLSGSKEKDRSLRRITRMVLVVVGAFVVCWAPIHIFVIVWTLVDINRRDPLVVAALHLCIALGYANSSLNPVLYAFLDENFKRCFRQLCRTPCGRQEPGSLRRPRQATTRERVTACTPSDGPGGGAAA

[7] = Solubility in HEPES buffer; assay type: physicochemical
Procedure: Solubility. HEPES buffer (0.05 M HEPES buffer in 0.1 M NaCl, pH 7.4, 500 μL) was added to 1 mg of compound. The sample was vortexed for 30 sec, sonicated for 5 min, shaken at r.t. for 2 h, and then allowed to be stayed overnight to equilibration. The sample was filtrated with an Acrodisc Syringe Filter (13 mm, 0.45 μm pore, PTFE membrane, Pall Life Sciences, East Hills, N.Y.).

[8] = target: T5, human δ opioid receptors (hDOR) (Homo sapiens, UniProt P41143); test: [35S]GTP-γ-S binding assay, hDOR; assay type: biochemical
T5 construct: expressed in transfected cells; host or cells: HN9.10 neuroblastoma cell line, pCDNA3, neomycin-selected clones
T5 sequence (P41143 whole entry): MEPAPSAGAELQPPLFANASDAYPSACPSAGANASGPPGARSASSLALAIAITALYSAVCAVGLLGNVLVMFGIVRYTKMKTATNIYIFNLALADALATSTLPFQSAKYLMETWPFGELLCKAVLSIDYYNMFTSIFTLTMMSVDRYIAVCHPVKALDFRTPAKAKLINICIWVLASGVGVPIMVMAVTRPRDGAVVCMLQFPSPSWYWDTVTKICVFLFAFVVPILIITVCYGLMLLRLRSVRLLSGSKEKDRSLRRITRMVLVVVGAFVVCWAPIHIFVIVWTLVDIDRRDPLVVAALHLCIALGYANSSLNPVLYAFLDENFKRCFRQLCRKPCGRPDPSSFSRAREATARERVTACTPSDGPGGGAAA

[9] = target: T6, rat μ opioid receptors (rMOR) (Rattus norvegicus, UniProt P33535); test: biochemical; assay type: biochemical
T6 construct: expressed in transfected cells; host or cells: HN9.10 neuroblastoma cell line, pCDNA3, neomycin-selected clones
T6 sequence (P33535 whole entry): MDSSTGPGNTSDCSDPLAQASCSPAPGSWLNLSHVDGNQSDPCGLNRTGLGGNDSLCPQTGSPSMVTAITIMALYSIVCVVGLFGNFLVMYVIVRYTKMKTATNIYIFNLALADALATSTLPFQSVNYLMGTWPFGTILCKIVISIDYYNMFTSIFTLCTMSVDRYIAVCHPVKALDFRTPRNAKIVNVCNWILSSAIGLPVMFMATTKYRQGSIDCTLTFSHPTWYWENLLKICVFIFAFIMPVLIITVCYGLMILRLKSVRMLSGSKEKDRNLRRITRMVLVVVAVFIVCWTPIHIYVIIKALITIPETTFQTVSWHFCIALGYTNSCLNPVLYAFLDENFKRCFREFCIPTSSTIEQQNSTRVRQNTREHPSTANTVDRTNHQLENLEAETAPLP

[10] = target: T6, rat μ opioid receptors (rMOR); test: Radioligand competition binding, [3H]DAMGO, rMOR membranes
[11] = target: rNK1 (Rattus norvegicus, UniProt P14600); details: previous studies; read-out: Affinity (Ki in nM), rNK1; cited from earlier work
Sequence of rNK1 (P14600 whole entry): as the sequence (P14600 whole entry) above

[12] = target: MOR (Homo sapiens, UniProt P35372); details: previous studies; read-out: Affinity (Ki in nM), MOR; cited from earlier work
Sequence of MOR (P35372 whole entry): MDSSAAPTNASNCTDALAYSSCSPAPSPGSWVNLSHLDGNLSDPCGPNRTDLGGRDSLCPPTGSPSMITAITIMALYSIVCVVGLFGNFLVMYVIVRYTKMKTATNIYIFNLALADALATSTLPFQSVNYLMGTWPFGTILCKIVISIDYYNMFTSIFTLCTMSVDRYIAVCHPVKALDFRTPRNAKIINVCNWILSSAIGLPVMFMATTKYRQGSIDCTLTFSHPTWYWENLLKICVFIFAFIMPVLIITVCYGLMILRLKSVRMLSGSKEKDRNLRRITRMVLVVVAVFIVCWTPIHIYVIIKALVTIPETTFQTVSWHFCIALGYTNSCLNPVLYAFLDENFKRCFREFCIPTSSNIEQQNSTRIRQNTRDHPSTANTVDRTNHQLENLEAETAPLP

[13] = Table 39, read-out: Affinity hNK1 (Ki; nM)
[14] = read-out: Ki (nM), hNK1, [3H]Substance P, Table 6, CHO cell membranes
[15] = 0.05 N HEPES buffer in 0.1 N NaCl
[16] = Table 39, read-out: GPI/LMMP opioid(mu) agonist (IC50; nM)
[17] = read-out: GTP binding hDOR Emax
[18] = read-out: GTP binding hDOR Emax (%)
[19] = Table 24, read-out: GTP binding rMOR Emax (%)
[20] = Table 39, read-out: GTP binding rMOR Emax
[21] = GPI/LMMP SP Antagonist (Ke; nM), Table 24

For `CC(C)C[C@H](NC(=O)[C@@H]1CCCN1C(=O)[C@H](Cc1ccccc1)NC(=O)CNC(=O)[C@@H](C)NC(=O)[C@@H](N)Cc1ccc(O)cc1)C(=O)N[C@@H](Cc1c[nH]c2ccccc12)C(=O)NCc1ccccc1` [TY008, H-Tyr-DAla-Gly-Phe-Pro-Leu-Trp-NH-Bzl], the inhibition at 1 µM ([1]; read-out: Inhibition % at 1 μM, rNK1, [3H]Substance P) was 30 ± 9.9%, the inhibition at 1 µM ([1]; read-out: inhibition at rNK1 receptor) was 30% and the “species difference between the guinea pig and the rat (NK1)” value ([2]; GPI Ke vs rNK1 affinity) was “more than 40 fold”. For the same compound, the Kb ([2]; Substance P antagonist, GPI, Ke, in the presence of 1 μM naloxone) was 26 ± 3.9 nM, the IC50 [3] was 31.6 nM and the Ki [3, 13] was 14 nM. For the same compound, the Ki [3, 14] was 14 nM, the Ki ([3]; read-out: Ki, hNK1) was 14 nM and the logD7.4 [4, 15] was 3.3.
Work on `CC(C)C[C@H](NC(=O)[C@@H]1CCCN1C(=O)[C@H](Cc1ccccc1)NC(=O)CNC(=O)[C@@H](C)NC(=O)[C@@H](N)Cc1ccc(O)cc1)C(=O)N[C@@H](Cc1c[nH]c2ccccc12)C(=O)NCc1cc(C(F)(F)F)cc(C(F)(F)F)c1` [TY012, H-Tyr-D-Ala-Gly-Phe-Pro-Leu-Trp-NH-3,5-Bzl(CF3)2] yielded an IC50 [1] of 100 nM, an IC50 [3] of 1.26 nM and a logD7.4 [4, 15] of over 4.
Compound `CC(C)C[C@H](NC(=O)[C@@H]1CCCN1C(=O)[C@H](Cc1ccccc1)NC(=O)CNC(=O)[C@@H](C)NC(=O)[C@@H](N)Cc1ccc(O)cc1)C(=O)N[C@@H](Cc1c[nH]c2ccccc12)C(=O)N(C)Cc1cc(C(F)(F)F)cc(C(F)(F)F)c1` [TY013, H-Tyr-D-Ala-Gly-Phe-Pro-Leu-Trp-NMe-3,5-Bzl(CF3)2] has an IC50 [1] of 20 nM, an IC50 [3] of 3.16 nM and a Ki [3] of 6.1 nM. For the same compound, the Ki [3, 13] was 1.4 nM, the Ki [3, 14] was 1.4 nM and the logD7.4 [4, 15] was over 4.
Work on `CSCC[C@H](NC(=O)[C@H](Cc1ccccc1)NC(=O)CNC(=O)[C@@H](C)NC(=O)[C@@H](N)Cc1ccc(O)cc1)C(=O)N1CCC[C@H]1C(=O)N[C@@H](CC(C)C)C(=O)N[C@@H](Cc1c[nH]c2ccccc12)C(=O)NCc1cc(C(F)(F)F)cc(C(F)(F)F)c1` [TY027, H-Tyr-D-Ala-Gly-Phe-Met-Pro-Leu-Trp-NH-3,5-Bzl(CF3)2] yielded an IC50 ([5]; Table 16, electrically stimulated isolated tissue, read-out: Opioid agonist GPI (μ), IC50) of 490 ± 29 nM, an IC50 ([5]; Table 22, electrically stimulated isolated tissue, read-out: Opioid agonist GPI (μ), IC50) of 490 ± 29 nM and an IC50 ([5]; Table 30, read-out: GPI/LMMP Opioid(m) Agonist (IC50; nM)) of 488 nM. The IC50 [5, 16] was 488 nM, the IC50 ([5]; electrically stimulated isolated tissue, read-out: GPI (μ), IC50) was 490 nM and the Ki ([1]; Table 29, read-out: Affinity rNK1 (Ki; nM)) was 7.27 nM. The Kb ([2]; Substance P antagonist, GPI, Ke (nM), Table 16, in the presence of 1 μM naloxone) was 10 ± 2.1 nM, the “species difference between affinities at rNK1 and hNK1” value ([3]; Ki rNK1 vs Ki hNK1) was 1100 fold and the IC50 [6] was 14.5 nM. It also gave a logD7.4 [4, 15] of over 4.0 and a solubility ([7]; pH 7.4, 0.05 N HEPES buffer in 0.1 N NaCl solution) of under 0.2 µg/mL.
`CCCC[C@H](NC(=O)[C@H](Cc1ccccc1)NC(=O)CNC(=O)[C@@H](C)NC(=O)[C@@H](N)Cc1ccc(O)cc1)C(=O)N1CCC[C@H]1C(=O)NC(COC1OC(CO)C(O)C(O)C1O)C(=O)N[C@@H](Cc1c[nH]c2ccccc12)C(=O)NCc1cc(C(F)(F)F)cc(C(F)(F)F)c1` (some centres unmarked) [TY041] showed an Emax [8, 17] of 62%, an Emax [8, 18] of 62% and a solubility ([7]; Table 26, HEPES buffer pH 7.4) of under 1 µg/mL. It also gave an Emax [9, 19] of 42% and an Emax [9, 20] of 42%.
With `CC(C)C[C@H](NC(=O)[C@@H]1CCCN1C(=O)C(COC1OC(CO)C(O)C(O)C1O)NC(=O)[C@H](Cc1ccccc1)NC(=O)CNC(=O)[C@@H](C)NC(=O)[C@@H](N)Cc1ccc(O)cc1)C(=O)N[C@@H](Cc1c[nH]c2ccccc12)C(=O)NCc1cc(C(F)(F)F)cc(C(F)(F)F)c1` (some centres unmarked) [TY042] the “GPI/LMMP SP Agonist (IC50; nM)” value ([2]; Table 39, at 10 nM) was “none”, the Emax [8, 17] was 47% and the Emax [8, 18] was 47%. It also gave a solubility ([7]; Table 26, HEPES buffer pH 7.4) of 1.4 µg/mL (≈ 1.05 µM), an Emax [9, 19] of 28% and an Emax [9, 20] of 28%.
`CCCC[C@H](NC(=O)[C@H](Cc1ccccc1)NC(=O)CNC(=O)[C@@H](C)NC(=O)[C@@H](N)Cc1ccc(O)cc1)C(=O)N[C@@H](COC1O[C@H](CO)[C@@H](O)[C@H](O)[C@H]1O)C(=O)N[C@@H](CC(C)C)C(=O)N[C@@H](Cc1c[nH]c2ccccc12)C(=O)NCc1cc(C(F)(F)F)cc(C(F)(F)F)c1` (some centres unmarked) [TY044] gave a Kb [2, 21] of 18.4 nM, a Ki [3] of 1.3 nM and an IC50 [6] of 18 nM. The Ki [10] was 3370 nM, the solubility thermodynamic ([7]; Table 26, HEPES buffer pH 7.4) was under 1 µg/mL and the EC50 ([9]; GTP binding rMOR EC50 (nM)) was 380 nM. For the same compound, the Emax ([9]; read-out: GTP binding rMOR Emax) was 85% and the Emax ([9]; read-out: GTP binding rMOR Emax (%)) was 85%.
Compound `CCCC[C@H](NC(=O)[C@H](Cc1ccccc1)NC(=O)CNC(=O)[C@@H](C)NC(=O)[C@@H](N)Cc1ccc(O)cc1)C(=O)N1CCC[C@H]1C(=O)N[C@@H](CC(C)C)C(=O)N[C@@H](Cc1c[nH]c2ccccc12)C(=O)NCc1cc(C(F)(F)F)cc(C(F)(F)F)c1` [TY045] has an IC50 ([5]; Table 24, read-out: GPI/LMMP Opioid (μ) Agonist (IC50; nM)) of 463 nM, an IC50 [5, 16] of 463 nM and a Kb [2, 21] of 40.8 nM. The Emax ([8]; Table 24, read-out: GTP binding hDOR Emax (%)) was 125%, the Emax ([8]; Table 39, read-out: GTP binding hDOR Emax) was 125% and the IC50 [6] was 13.6 nM. The logD7.4 ([4]; Table 26, pH 7.4) was over 3.0 and the solubility ([7]; Table 26, HEPES buffer pH 7.4) was under 1 µg/mL.
For HTyrDAlaGlyPheNHNHTrpCbz [AA501], the Ki [11] is listed as 5000 nM and the Ki [12] is listed as 80 nM.
For “HTyrProPhePheGlyLeuMetNH2 (H-YPFFGLM-NH2) [ESP7]”, the Ki [11] is listed as 289 nM and the Ki [12] is listed as 218 nM.
For “HTyrProPhePheProLeuMetNH2 (H-YPFFPLM-NH2) [ESP6]”, the Ki [11] is given as 305 nM and the Ki [12] is given as 92 nM.

From patent US8026218B2, “Bifunctional analgesic compounds for opioid receptor agonists and neurokinin-1 receptor antagonists” (The University of Arizona, priority 2006, dated 2011)
